Experimental data reported in patent publication US9932637B2, “Genetic polymorphisms associated with cardiovascular disorders and drug response, methods of detection and uses thereof” (CELERA CORPORATION, priority 2003, dated 2018).
Values joined by “and” are separate entries in the source; they are usually repeats but may differ in a detail not shown here. Identical values can stand only once.

System: Scottish men with hypercholesterolemia (WOSCOPS)
Test: WOSCOPS nested case-control: coronary events under pravastatin vs placebo by genotype (Tables 11, 13, 15)
Type: in vivo, human
Conditions: for Pravastatin Patients (%) / Pravastatin Patients n/total: WM
Source text: Additionally, genetic markers identified as associated with acute coronary events or response to statin treatment for the prevention of coronary events in the CARE samples were also genotyped in a second sample set, the West of Scotland Coronary Prevention Study (WOSCOPS) sample set. […] Participants in the WOSCOPS study were 45-64 years of age and followed for an average of 4.9 years for coronary events. […] Controls were 1160 age and smoking status-matched unaffected patients. All individuals included in the study had signed a written informed consent form and the study protocol was approved by IRB s. DNA was extracted and genotyped as described above.
The data presented in Table 8 based on an association of genotypes with pravastatin efficacy of the CARE samples were further analyzed and presented in Table 13. The further analysis was performed to align the data obtained from the analysis of the CARE samples, which was a prospective study, to the analysis of the WOSCOP samples, which was a case/control study. Table 13 also presents an analysis of the association of genotypes with pravastatin efficacy in the WOSCOPs samples. Relative to the analysis performed on the data presented in Table 8, there are two significant differences to determine if the SNP influenced pravastatin efficacy. Data obtained from the CARE samples were separated by study design into two groups, those in the prospective study design group and those in the case/control study design group. The original care study contained 16 protocol defined cardiovascular disease defined endpoints and 150 other phenotypes. […] The control groups used to compare the data were also divided into two groups, the “all possible” control group and the “cleaner” control group. […] Because the participants in the WOSCOPs trial were all white males, only data obtained from white males in the CARE study were analysed. […] The data from the case/control cohorts were analysed using conditional logistic regression (as opposed to logistic regression used for the original anaylsis).
The anaylsis was refined as described for both Tables 13 and 14.

[1] = CAPN2 hCV781558, WOSCOPS (W) Case/Control, F&NF MI, listed as Pravastatin
[2] = CAPN2 hCV781558, WOSCOPS, Case/Control, F MI/SD/NF MI, listed as Pravastatin
[3] = CCL11 hCV7449808, WOSCOPS (W) Case/Control, F&NF MI
[4] = CCL11 hCV7449808, WOSCOPS, Case/Control, F MI/SD/NF MI
[5] = COL6A2 hCV2811372, WOSCOPS, Case/Control, F MI/SD/NF MI
[6] = COL6A2 hCV2811372, WOSCOPS, Case/Control, F MI/SD/NF MI, listed as Pravastatin
[7] = DDEF1 hCV7686234, WOSCOPS (W) Case/Control, F&NF MI
[8] = FGB hCV7429784, WOSCOPS, Case/Control, F MI/SD/NF MI
[9] = GAPD hCV8921288, WOSCOPS (W) Case/Control, F&NF MI
[10] = GAPD hCV8921288, WOSCOPS, Case/Control, F MI/SD/NF MI
[11] = HRC hCV11506744, 0 Rare Alleles, WOSCOPS Case/Control, F&NF MI, All Possible controls
[12] = HRC hCV11506744, 0 Rare Alleles, WOSCOPS Case/Control, F&NF MI, Cleaner controls
[13] = HRC hCV11506744, 1 Rare Allele, WOSCOPS Case/Control, F&NF MI, All Possible controls
[14] = HRC hCV11506744, 1 Rare Allele, WOSCOPS Case/Control, F&NF MI, Cleaner controls
[15] = HRC hCV11506744, WOSCOPS Case/Control, F&NF MI
[16] = HRC hCV11506744, WOSCOPS, Case/Control, F MI/SD/NF MI, listed as Pravastatin
[17] = IL1A hCV9546471, 0 Rare Alleles, WOSCOPS Case/Control, F&NF MI, All Possible controls
[18] = IL1A hCV9546471, 1 Rare Allele, WOSCOPS Case/Control, F&NF MI, All Possible controls
[19] = IL1A hCV9546471, WOSCOPS Case/Control, F&NF MI
[20] = IL1A hCV9546471, WOSCOPS, Case/Control, F MI/SD/NF MI
[21] = LRP3 hCV25594815, 0 Rare Alleles, WOSCOPS Case/Control, F&NF MI, All Possible controls
[22] = LRP3 hCV25594815, 0 Rare Alleles, WOSCOPS Case/Control, F&NF MI, Cleaner controls
[23] = LRP3 hCV25594815, 1 Rare Allele, WOSCOPS Case/Control, F&NF MI, All Possible controls
[24] = LRP3 hCV25594815, 1 Rare Allele, WOSCOPS Case/Control, F&NF MI, Cleaner controls
[25] = LRP3 hCV25594815, WOSCOPS Case/Control, F&NF MI
[26] = LRP3 hCV25594815, WOSCOPS, Case/Control, F MI/SD/NF MI
[27] = PON1 hCV2548962, 0 rare alleles, WOSCOPS Case/Control, Fatal & Nonfatal MI, Cleaner controls, White Males
[28] = PON1 hCV2548962, 1 rare allele, WOSCOPS Case/Control, Fatal & Nonfatal MI, Cleaner controls, White Males
[29] = PON1 hCV2548962, 2 rare alleles, WOSCOPS Case/Control, Fatal & Nonfatal MI, Cleaner controls, White Males
[30] = WOSCOPS, FCAR genotype GG, placebo group as reference, conditional logistic regression

## CC[C@H](C)C(=O)O[C@H]1C[C@H](O)C=C2C=C[C@H](C)[C@H](CC[C@@H](O)C[C@@H](O)CC(=O)O)[C@H]21 [pravastatin]
CAPN2 hCV781558, WOSCOPS (W) Case/Control, F&NF MI
  Pravastatin vs placebo odds ratio, 1 rare allele: 1.02
[1]
  2 Rare Alleles n/total, Pravastatin Patients: 10/41 and 10/39
  Pravastatin vs placebo odds ratio, 0 rare alleles: 0.52 and 0.51
  Pravastatin vs placebo odds ratio, 1 rare allele: 1.07
  Pravastatin vs placebo odds ratio, 2 rare alleles: 0.46 and 0.38
CAPN2 hCV781558, WOSCOPS, Case/Control, F MI/SD/NF MI
  Pravastatin vs placebo odds ratio, 1 rare allele: 1.08
[2]
  Pravastatin vs placebo odds ratio, 0 rare alleles: 0.46 and 0.45
  Pravastatin vs placebo odds ratio, 1 rare allele: 1.03
  Pravastatin vs placebo odds ratio, 2 rare alleles: 0.56 and 0.43
[3]
  2 Rare Alleles n/total, Pravastatin Patients: 10/24 and 10/22
  Pravastatin vs placebo odds ratio, 0 rare alleles: 0.67 and 0.65
  Pravastatin vs placebo odds ratio, 1 rare allele: 0.57 and 0.53
  Pravastatin vs placebo odds ratio, 2 rare alleles: 6.96 and 7.20
[4]
  Pravastatin vs placebo odds ratio, 0 rare alleles: 0.63 and 0.62
  Pravastatin vs placebo odds ratio, 1 rare allele: 0.50 and 0.46
  Pravastatin vs placebo odds ratio, 2 rare alleles: 8.57 and 9.95
[5]
  Pravastatin vs placebo odds ratio, 0 rare alleles: 0.39
  Pravastatin vs placebo odds ratio, 2 rare alleles: 1.04
[6]
  Pravastatin vs placebo odds ratio, 1 rare allele: 0.62 and 0.59
  Pravastatin vs placebo odds ratio, 2 rare alleles: 1.09
[7]
  2 Rare Alleles (%), Pravastatin Patients: (25.1%)
  2 Rare Alleles n/total, Pravastatin Patients: 42/167
  Pravastatin vs placebo odds ratio, 0 rare alleles: 0.45
  Pravastatin vs placebo odds ratio, 1 rare allele: 0.68
  Pravastatin vs placebo odds ratio, 2 rare alleles: 1.06
[8]
  2 rare alleles n/total (%), pravastatin patients: (50.0%)
  Pravastatin vs placebo odds ratio, 0 rare alleles: 0.63
  Pravastatin vs placebo odds ratio, 1 rare allele: 0.52
  Pravastatin vs placebo odds ratio, 2 rare alleles: 3.14
[9]
  2 Rare Alleles n/total, Pravastatin Patients: 10/26 and 10/23
  Pravastatin vs placebo odds ratio, 0 rare alleles: 0.54 and 0.50
  Pravastatin vs placebo odds ratio, 1 rare allele: 0.99 and 0.98
  Pravastatin vs placebo odds ratio, 2 rare alleles: 1.51 and 1.90
[10]
  Pravastatin vs placebo odds ratio, 0 rare alleles: 0.50 and 0.46
  Pravastatin vs placebo odds ratio, 1 rare allele: 0.88 and 0.89
  Pravastatin vs placebo odds ratio, 2 rare alleles: 1.56 and 1.92
[11]
  Pravastatin Patients (%): (23.3%)
  Pravastatin Patients n/total: 59/253
[12]
  Pravastatin Patients (%): (25.2%)
  Pravastatin Patients n/total: 59/234
[13]
  Pravastatin Patients (%): (18.0%)
  Pravastatin Patients n/total: 65/361
[14]
  Pravastatin Patients (%): (19.2%)
  Pravastatin Patients n/total: 65/338
[15]
  2 Rare Alleles (%), Pravastatin Patients: (27.6%)
  2 Rare Alleles n/total, Pravastatin Patients: 35/127 and 35/118
  Pravastatin vs placebo odds ratio, 0 rare alleles: 0.84 and 0.80
  Pravastatin vs placebo odds ratio, 1 rare allele: 0.49 and 0.46
  Pravastatin vs placebo odds ratio, 2 rare alleles: 1.08
HRC hCV11506744, WOSCOPS, Case/Control, F MI/SD/NF MI
  Pravastatin vs placebo odds ratio, 2 rare alleles: 1.04
[16]
  Pravastatin vs placebo odds ratio, 0 rare alleles: 0.85 and 0.80
  Pravastatin vs placebo odds ratio, 1 rare allele: 0.41 and 0.39
  Pravastatin vs placebo odds ratio, 2 rare alleles: 1.05
[17]
  Pravastatin Patients (%): (20.8%)
  Pravastatin Patients n/total: 77/370
[18]
  Pravastatin Patients (%): (24.2%)
  Pravastatin Patients n/total: 74/306
[19]
  2 Rare Alleles (%), Pravastatin Patients: (18.3%)
  2 Rare Alleles n/total, Pravastatin Patients: 11/60
  Pravastatin vs placebo odds ratio, 0 rare alleles: 0.52
  Pravastatin vs placebo odds ratio, 1 rare allele: 0.95
  Pravastatin vs placebo odds ratio, 2 rare alleles: 0.95
[20]
  Pravastatin vs placebo odds ratio, 0 rare alleles: 0.46 and 0.45
  Pravastatin vs placebo odds ratio, 1 rare allele: 0.91 and 0.85
  Pravastatin vs placebo odds ratio, 2 rare alleles: 0.94 and 0.98
[21]
  Pravastatin Patients (%): (24.1%)
  Pravastatin Patients n/total: 133/552
[22]
  Pravastatin Patients (%): (26.1%)
  Pravastatin Patients n/total: 133/509
[23]
  Pravastatin Patients (%): (14.5%)
  Pravastatin Patients n/total: 25/172
[24]
  Pravastatin Patients (%): (15.2%)
  Pravastatin Patients n/total: 25/164
[25]
  2 Rare Alleles (%), Pravastatin Patients: (27.3%)
  2 Rare Alleles n/total, Pravastatin Patients: 3/11
  Pravastatin vs placebo odds ratio, 0 rare alleles: 0.82 and 0.80
  Pravastatin vs placebo odds ratio, 1 rare allele: 0.33 and 0.31
  Pravastatin vs placebo odds ratio, 2 rare alleles: 1.46 and 1.21
[26]
  2 rare alleles n/total (%), pravastatin patients: (27.3%)
  Pravastatin vs placebo odds ratio, 0 rare alleles: 0.76 and 0.75
  Pravastatin vs placebo odds ratio, 1 rare allele: 0.29 and 0.26
  Pravastatin vs placebo odds ratio, 2 rare alleles: 2.40 and 1.80
[27]
  Pravastatin vs. Placebo Odds Ratio (95% CI), Patients with 0 Rare Alleles: 0.84 (0.60 to 1.16)
  n/total (%) cases, Pravastatin Patients, 0 Rare Alleles: 88/344 (25.6%)
[28]
  Pravastatin vs. Placebo Odds Ratio (95% CI), Patients with 1 Rare Allele: 0.58 (0.40 to 0.84)
  n/total (%) cases, Pravastatin Patients, 1 Rare Allele: 65/282 (23.1%)
[29]
  Pravastatin vs. Placebo Odds Ratio (95% CI), Patients with 2 Rare Alleles: 0.34 (0.14 to 0.82)
  n/total (%) cases, Pravastatin Patients, 2 Rare Alleles: 9/53 (17.0%)
WOSCOPS, CD6 hCV2553030, homozygous for the minor allele
  RR or OR of adverse coronary event, pravastatin vs placebo: 0.23
WOSCOPS, CD6 hCV2553030 genotype Het (TC)
  OR (odds ratio) of MI associated with Pravastatin: 0.71
WOSCOPS, CD6 hCV2553030 genotype Major hom (CC)
  OR (odds ratio) of MI associated with Pravastatin: 0.66
WOSCOPS, CD6 hCV2553030 genotype Minor hom (TT)
  OR (odds ratio) of MI associated with Pravastatin: 0.23
WOSCOPS, CD6 hCV2553030 recessive (TT)
  OR (odds ratio) of MI associated with Pravastatin: 0.23
WOSCOPS; CD6 hCV2553030 recessive TC + CC)ref
  OR (odds ratio) of MI associated with Pravastatin: 0.68
[30]
  OR of MI associated with Pravastatin, first of two OR sets printed: 0.66
  OR of MI associated with Pravastatin, second of two OR sets printed: 0.65
